Experimental data from patent publication EP0044212B1, “Herbicidal o-alkylsulfonyloxy- and o-alkylsulfonylamino-benzenesulfonamides” (E.I. DU PONT DE NEMOURS AND COMPANY, priority 1980, dated 1982).

Key:
[1] = system: Wild Oats; assay: Test F over-the-top soil/foliage treatment; type: in vivo, Avena fatua; parameters: scale not given here; details: soil/foliage spray, ~14 days
Method: (§1) The test chemicals, dissolved in a non-phytotoxic solvent, were applied in an overall spray to the foliage and surrounding […] of selected plant species. […] Approximately fourteen days after treatment, all species were visually compared to untreated controls and rated for response to treatment.
(§2) All plant species were seeded in Woodstown sandy loam soil and grown in a greenhouse. The following species were grown in soil contained in plastic pots (25 cm diameter by 13 cm deep): soybeans, cotton, alfalfa, corn, rice, wheet, sorghum, velvetleaf (Abutilon theophrasti), sesbania (Sesbania exaltata), Cassia (Cassia tora), morningglory (Ipomoea hederacea), jimsonweed (Datura stramonium), cocklebur (Xanthium pensylvanicum), crabgrass (Digitaria spp.), nutsedge (Cyperus rotundus), barnyardgrass (Echinochloa crusgalli), giant foxtail (Setaria faberii) and wild oats (Avena fatua). The following species were grown in soil in a paper cup (12 cm diameter by 13 cm deep): sunflower, sugarbeets, and mustard. All plants were sprayed approximately 14 days after planting.

[2] = system: Ky. bluegrass; assay: Test B pre-emergence on Fallsington silt loam; type: in vivo, Kentucky bluegrass; parameters: scale not given here; details: 28 days
Description: (§3) Two plastic bulb pans were filled with fertilized and limed Fallsington silt loam soil. One pan was planted with corn, sorghum, Kentucky bluegrass and several grassy weeds. The other pan was planted with cotton, soybeans, purple nutsedge (Cyperus rotundus), and several broadleaf weeds. The following grassy and broadleaf weeds were planted: crabgrass (Digitaria sanguinalis), barnyardgrass (Echinochloa crusgalli), wild oats (Avena fatua), johnsongrass (Sorghum halepense), dallisgrass (Paspalum dilatatum), giant foxtail (Setaria faberii), cheatgrass (Bromus secalinus), mustard (Brassica arvensis), cocklebur (Xanthium pensylvanicum), pigweed (Amaranthus retroflexus), morningglory (Ipomoea hederacea), cassia (Cassia tora), teaweed (Sida spinosa), velvetleaf (Abutilon theophrasti), and jimsonweed (Datura stramonium). A 12.5 cm diameter plastic pot was also filed with prepared soil and planted with rice and wheat. Another 12.5 cm pot was planted with sugarbeets. The above four containers were treated pre- emergence with several test compounds within the scope of the invention.
(§4) Twenty-eight days after treatment, the plants were evaluated and visually rated for response to the chemical treatments utilizing the rating system described previously for Test A. The data are summarized in Table B.

[3] = system: Barnyardgrass; assay: Test B pre-emergence on Fallsington silt loam; type: in vivo, Echinochloa crusgalli; details: 28 days
Description: as §3, §4

[4] = system: Wheat; assay: Test F over-the-top soil/foliage treatment; type: in vivo, wheet; parameters: scale not given here; details: soil/foliage spray, ~14 days
Method: as §1, §2

[5] = system: Cassia; assay: Test B pre-emergence on Fallsington silt loam; type: in vivo, Cassia tora; details: 28 days
Description: as §3, §4

[6] = system: Soybean; assay: Test B pre-emergence on Fallsington silt loam; type: in vivo, soybeans; details: 28 days
Description: as §3, §4

[7] = system: Wild Oats; assay: Test B pre-emergence on Fallsington silt loam; type: in vivo, Avena fatua; parameters: scale not given here; details: 28 days
Description: as §3, §4

[8] = system: Cheatgrass; assay: Test B pre-emergence on Fallsington silt loam; type: in vivo, Bromus secalinus; details: 0.007 kg/ha, 28 days
Description: as §3, §4

[9] = system: Sunflower; assay: Test F over-the-top soil/foliage treatment; type: in vivo; details: soil/foliage spray; 0.007 kg/ha; ~14 days
Method: as §1, §2

[10] = system: Mustard; assay: Test F over-the-top soil/foliage treatment; type: in vivo; details: soil/foliage spray; 0.007 kg/ha; ~14 days
Method: as §1, §2

[11] = system: Sugarbeets; assay: Test F over-the-top soil/foliage treatment; type: in vivo; details: soil/foliage spray; 0.007 kg/ha; ~14 days
Method: as §1, §2

[12] = system: Corn; assay: Test F over-the-top soil/foliage treatment; type: in vivo; details: soil/foliage spray, ~14 days
Method: as §1, §2

[13] = system: Dallisgrass; assay: Test B pre-emergence on Fallsington silt loam; type: in vivo, Paspalum dilatatum; parameters: scale not given here; details: 28 days
Description: as §3, §4

[14] = system: Nutsedge; assay: Test F over-the-top soil/foliage treatment; type: in vivo, Cyperus rotundus; parameters: scale not given here; details: soil/foliage spray, ~14 days
Method: as §1, §2

[15] = system: Johnsongrass; assay: Test B pre-emergence on Fallsington silt loam; type: in vivo, Sorghum halepense; parameters: scale not given here; details: 28 days
Description: as §3, §4

[16] = system: Sesbania; assay: Test F over-the-top soil/foliage treatment; type: in vivo, Sesbania exaltata; parameters: scale not given here; details: soil/foliage spray, ~14 days
Method: as §1, §2

[17] = system: Rice; assay: Test B pre-emergence on Fallsington silt loam; type: in vivo; details: 0.007 kg/ha, 28 days
Description: as §3, §4

[18] = system: Sorghum; assay: Test B pre-emergence on Fallsington silt loam; type: in vivo; details: 28 days
Description: as §3, §4

[19] = system: Cotton; assay: Test B pre-emergence on Fallsington silt loam; type: in vivo; details: 28 days
Description: as §3, §4

[20] = system: Giant Foxtail; assay: Test B pre-emergence on Fallsington silt loam; type: in vivo, Setaria faberii; details: 28 days
Description: as §3, §4

[21] = system: Giant Foxtail; assay: Test F over-the-top soil/foliage treatment; type: in vivo, Setaria faberii; parameters: scale not given here; details: soil/foliage spray, ~14 days
Method: as §1, §2

[22] = system: Barnyardgrass; assay: Test F over-the-top soil/foliage treatment; type: in vivo, Echinochloa crusgalli; parameters: scale not given here; details: soil/foliage spray, ~14 days
Method: as §1, §2

[23] = system: Jimsonweed; assay: Test F over-the-top soil/foliage treatment; type: in vivo, Datura stramonium; details: soil/foliage spray; 0.003 kg/ha; ~14 days
Method: as §1, §2

[24] = system: Crabgrass; assay: Test B pre-emergence on Fallsington silt loam; type: in vivo, Digitaria sanguinalis; parameters: scale not given here; details: 28 days
Description: as §3, §4

[25] = system: Cocklebur; assay: Test B pre-emergence on Fallsington silt loam; type: in vivo, Xanthium pensylvanicum; details: 28 days
Description: as §3, §4

[26] = system: Crabgrass; assay: Test F over-the-top soil/foliage treatment; type: in vivo, Digitaria spp.; parameters: scale not given here; details: soil/foliage spray, ~14 days
Method: as §1, §2

[27] = system: Sugarbeets; assay: Test B pre-emergence on Fallsington silt loam; type: in vivo; parameters: scale not given here; details: 28 days
Description: as §3, §4

[28] = system: Wheat; assay: Test B pre-emergence on Fallsington silt loam; type: in vivo; parameters: scale not given here; details: 28 days
Description: as §3, §4

[29] = system: Corn; assay: Test B pre-emergence on Fallsington silt loam; type: in vivo; parameters: scale not given here; details: 28 days
Description: as §3, §4

Cc1cc(C)nc(NC(=O)NS(=O)(=O)c2ccccc2OS(C)(=O)=O)n1 [Compound 3, N-[(4,6-dimethylpyrimidin-2-yl)aminocarbonyl]-2-hydroxybenzenesulfonamide, methanesulfonate]
Wild Oats response rating ([1]; 0.003 kg/ha): 4G
Wild Oats response rating ([1]; 0.007 kg/ha): 5G
Wild Oats response rating ([1]; 0.06 kg/ha): 10C
Ky. bluegrass response rating ([2]; 0.007 kg/ha): 0
Ky. bluegrass response rating ([2]; 0.015 kg/ha): 2G
Ky. bluegrass response rating ([2]; 0.03 kg/ha): 10C
Barnyardgrass response rating ([3]; 0.007 kg/ha): 2G
Barnyardgrass response rating ([3]; 0.015 kg/ha): 2G
Wheat response rating ([4]; 0.003 kg/ha): 3G
Wheat response rating ([4]; 0.007 kg/ha): 6G
Wheat response rating ([4]; 0.015 kg/ha): 1C
Wheat response rating ([4]; 0.06 kg/ha): 8C
Cassia response rating ([5]; 0.007 kg/ha): 0
Cassia response rating ([5]; 0.015 kg/ha): 0
Soybean response rating ([6]; 0.007 kg/ha): 0
Soybean response rating ([6]; 0.015 kg/ha): 0
Wild Oats response rating ([7]; 0.007 kg/ha): 0
Wild Oats response rating ([7]; 0.015 kg/ha): 0
Wild Oats response rating ([7]; 0.03 kg/ha): 10C
Wild Oats response rating ([7]; 0.12 kg/ha): 10C
Cheatgrass response rating [8]: 0
Sunflower response rating [9]: 10C
Mustard response rating [10]: 10C
Sugarbeets response rating [11]: 10C
Corn response rating ([12]; 0.007 kg/ha): 9G
Corn response rating ([12]; 0.06 kg/ha): 10C
Dallisgrass response rating ([13]; 0.007 kg/ha): 0
Dallisgrass response rating ([13]; 0.015 kg/ha): 3G
Dallisgrass response rating ([13]; 0.03 kg/ha): 6G
Nutsedge response rating ([14]; 0.003 kg/ha): 5G
Nutsedge response rating ([14]; 0.007 kg/ha): 7G
Johnsongrass response rating ([15]; 0.007 kg/ha): 0
Johnsongrass response rating ([15]; 0.015 kg/ha): 3G
Johnsongrass response rating ([15]; 0.03 kg/ha): 10C
Johnsongrass response rating ([15]; 0.12 kg/ha): 10C
Sesbania response rating ([16]; 0.015 kg/ha): 9C
Sesbania response rating ([16]; 0.06 kg/ha): 9C
Rice response rating [17]: 3G
Sorghum response rating ([18]; 0.007 kg/ha): 2G
Sorghum response rating ([18]; 0.015 kg/ha): 4G
Sorghum response rating ([18]; 0.03 kg/ha): 10C
Cotton response rating ([19]; 0.007 kg/ha): 0
Cotton response rating ([19]; 0.015 kg/ha): 0
Giant Foxtail response rating ([20]; 0.007 kg/ha): 0
Giant Foxtail response rating ([20]; 0.015 kg/ha): 3G
Giant Foxtail response rating ([20]; 0.03 kg/ha): 3C
Giant Foxtail response rating ([21]; 0.003 kg/ha): 0
Giant Foxtail response rating ([21]; 0.007 kg/ha): 0
Barnyardgrass response rating ([22]; 0.015 kg/ha): 9C
Barnyardgrass response rating ([22]; 0.06 kg/ha): 10C
Jimsonweed response rating [23]: 0
Crabgrass response rating ([24]; 0.007 kg/ha): 0
Crabgrass response rating ([24]; 0.015 kg/ha): 0
Crabgrass response rating ([24]; 0.03 kg/ha): 5G
Crabgrass response rating ([24]; 0.12 kg/ha): 6G
Cocklebur response rating ([25]; 0.007 kg/ha): 0
Cocklebur response rating ([25]; 0.015 kg/ha): 0
Cocklebur response rating ([25]; 0.03 kg/ha): 7G
Crabgrass response rating ([26]; 0.003 kg/ha): 0
Crabgrass response rating ([26]; 0.015 kg/ha): 0
Sugarbeets response rating ([27]; 0.015 kg/ha): 4G
Sugarbeets response rating ([27]; 0.03 kg/ha): 10C
Sugarbeets response rating ([27]; 0.12 kg/ha): 10C
Wheat response rating ([28]; 0.007 kg/ha): 0
Wheat response rating ([28]; 0.015 kg/ha): 0
Wheat response rating ([28]; 0.03 kg/ha): 5G
Corn response rating ([29]; 0.007 kg/ha): 0
Corn response rating ([29]; 0.015 kg/ha): 0
Corn response rating ([29]; 0.03 kg/ha): 10C
Corn response rating ([29]; 0.12 kg/ha): 10C
